Series [1] has as its system P. falciparum strains (sensitive and resistant). The series is described as follows: microbe, parasite or virus in culture. The class given is cell-based. The conditions noted are these: Plasmodium falciparum, mean ± SD n=3.
Series [2] concerns P. vivax clinical field isolates. The series is described as follows: microbe, parasite or virus in culture. The conditions noted are these: Plasmodium vivax, read-out: Median IC50. The format is cell-based.
The test system of series [3] is P. falciparum lab lines FC27 and K1. The series is described as follows: microbe, parasite or virus in culture. The conditions noted are these: Plasmodium falciparum, median of 3 independent experiments. The format is cell-based.
The subject of series [4] is P. falciparum strain 3D7^0087/N9. Also noted: method as in PMID 19596869. The conditions noted are these: four consecutive daily doses; cited from earlier work.
Series [5] has as its system P. falciparum 3D7. The series is described as follows: In vitro antimalarial activity, drug sensitivity testing (3D7). The class given is cell-based. To be noted: Plasmodium falciparum.
The test system of series [6] is P. berghei. On the set-up: species or system Plasmodium berghei.
Series [7] in a line: In vitro intrinsic clearance, human liver microsomes (Chem Partners). The class given is in vitro ADME. The conditions noted are these: human (H) liver microsomes. In general terms: Microsomes from liver hold many membrane-bound enzymes, among them those of drug oxidation.
Series [8] in a line: In vitro intrinsic clearance, rat liver microsomes (Chem Partners). The format is in vitro ADME. The conditions noted are these: rat (R) liver microsomes.
A short description of series [9]: Rat blood stability in vitro. To be noted: male, Sprague Dawley, freshly collected whole blood.
Series [10] is described as follows: Rat PK iv 1 mg/kg (Chem Partners). The conditions noted are these: in vivo.
The nature of series [11]: Mammalian cell cytotoxicity. The class given is cell-based. The conditions noted are these: human; HeLa cells, n=3; read-out: cytotoxicity median IC50.
Series [12] relates to P. berghei. Also noted: method as in Charman et al. 12. To be noted: ref Charman et al. 12, cited from earlier work.
Series [13] deals with African variant G6PD deficient human red blood cells (huRBC). The conditions noted are these: 7 days post-treatment; E209 up to 50 mg kg^−1 day^−1 for 3 days; PQ 25 mg/kg/day for 3 days.

Like-named read-outs stand apart in the source and are kept apart here.

The term IC50 denotes the concentration that inhibits the measured activity by half. Regarding `C[C@H]1[C@H](OC(=O)CCC(=O)O)O[C@@H]2O[C@@]3(C)CC[C@H]4[C@H](C)CC[C@@H]1[C@@]24OO3` [Artesunate, artesunate], the half-inhibitory concentration (IC50) in [1] (DD2, strain Dd2 (chloroquine resistant)) is 5.4 ± 1.1 nM; in series [1] (HB3, strain HB3 (chloroquine sensitive)), 2.8 ± 0.6 nM; in [1] (NF54, strain NF54 (chloroquine sensitive)), 4.7 ± 1 nM; in [1] (strain 7G8 (chloroquine resistant)), 1.8 ± 0.4 nM; in series [1] (strain D6 (chloroquine sensitive)), 5.8 ± 1.2 nM; in series [1] (strain FCB (chloroquine resistant)), 5.8 ± 1.2 nM. The IC50 turned out to be 2.8 ± 0.6 nM in series [1] (strain K1 (chloroquine resistant)); 2.7 ± 0.6 nM in series [1] (strain V1/S (chloroquine resistant)); 0.8 nM in series [2]; 3.6 nM in series [3] (K1, FC27 (CQ S) lab line); 5.1 nM in series [3] (K1, K1 (CQ R) lab line). The ED90 in [4] was 10 mg/kg.

What is called CLint scaled is a measure of how fast metabolising enzymes remove a compound, apart from limits set by blood flow. One may read the half-life as the time in which the quantity being followed falls by half. In general, clearance refers to the rate of elimination divided by the concentration. Consider `CS(=O)(=O)N1CCN(CCCOc2ccc(C3CCC4(CC3)OOC3(OO4)C4CC5CC(C4)CC3C5)cc2)CC1` (stereo not drawn) [Compound 7], for which the IC50 in [5] turned out to be 3.7 ± 0.1 nM. In addition, in series [6], the “In vivo (Pb) MSD (days) at 1 x 30 mg/kg” value was 14 (14, 14, 14) days. In series [7], this compound had an intrinsic metabolic clearance (CLint scaled) of 238 mL/min/kg. For the same compound, the CLint scaled in [8] amounted to 29 mL/min/kg. In addition, the half-life at 1 µM in [9] was 15 h. In addition, in series [10], the clearance is 3.5 mL/min/kg and the half-life was 3.2 h.

For the compound `C[C@H]1[C@@H](O)O[C@@H]2O[C@@]3(C)CC[C@H]4[C@H](C)CC[C@@H]1[C@@]24OO3` [DHA, dihydroartemisinin, reference compound], the IC50 in series [11] came to 400 nM.

For the compound `c1cc([C@H]2CC[C@]3(CC2)OO[C@]2(O3)C3CC4CC(C3)CC2C4)ccc1OCCN1CCOCC1` [OZ439], in series [5], half-maximal inhibition (IC50) was put at 5.1 ± 0.81 nM. Also, the cures in series [12] (animals cured of n=3, single oral dose 30 mg/kg) is 3. In addition, the “In vivo (Pb) MSD (days) at 1 x 30 mg/kg” value in series [12] (single oral dose 30 mg kg^-1, P. berghei infected mice) was 30 days.

On to `COc1cc(NC(C)CCCN)c2ncccc2c1` (stereo not drawn) [primaquine, reference compound], for which the “loss of huRBC” value in series [13] is reported as “induced significant loss of huRBC”.

Values taken from article PMC5458052 (Nature Communications, 2017).
